# Test results published in patent US20030139371A1, “Drug for combating sexual dysfunctions” (priority 2000, published 2003).
# Columns and labels:
# [1] = test system: corpus cavernosum smooth muscle from male rabbits; experiment: Relaxation of phenylephrine-precontracted corpus cavernosum smooth muscle in organ chambers, male rabbits; set-up: species or system rabbit; conditions: for relaxation of the corpus cavernosum smooth muscle in the presence of aspirin / relaxation of the corpus cavernosum smooth muscle: male rabbits, after phenylephrine precontraction; for relaxation of the corpus cavernosum smooth muscle in the presence of aspirin: purine 10^-3M combined with aspirin 10^-3M; for relaxation of the corpus cavernosum smooth muscle: purine alone at 10^-3M
# [2] = test system: isolated rabbit corpus cavernosum; experiment: Isolated rabbit corpus cavernosum in organ chambers, sex not specified or both sexes; conditions: for potentiation of the relaxant effect of purine by the NSAID: NSAID in place of aspirin, combined with purine
# Text: The in vitro model we used was that of the isolated rabbit corpus cavernosum in organ chambers. […] In fact, the best correlations with the results found in humans have been found in the rabbit; see, e.g., Bush P. A., Aronson W. J., Buga G. M., Rajfer J., Ignarro L. J., J. Urol. 147(6); 1650-1655 (1992); Knispel H. H., Goessel C., Bechman R., Urol. Res. 20(4); 253-257 (1992); Holmquist F., Hedlund H., Andersson K. E., J. Physiol. (London) 449; 295-311 (1992); and Cellek S., Moncada S., Proc. Natl. Acad. Sci. USA 94(15); 8226-8231 (1997).
# The relaxant action of purines was studied in this model either with purines alone or with an inhibitor of NO synthesis (N-omega-nitro-L-arginine, or L-NNA) so as to investigate whether the regulation by purines of the production of NO is a component of the relaxant effect of purines.
# In a similar manner, we investigated whether the presence of an inhibitor of the synthesis of prostaglandins (cyclooxygenase inhibitor) modified the effects of purine. If the action of purine could be explained in part by an indirect effect via prostaglandins, we would expect to see a decrease in the effect of purine in the presence of the cyclooxygenase inhibitor.
# This study was performed in vitro on corpus cavernosum smooth muscles from male and female rabbits. The technique is that of organ chambers.
# The study was performed on male and female rabbits.
# [3] = test system: corpus cavernosum smooth muscle from female rabbits; experiment: Relaxation of phenylephrine-precontracted corpus cavernosum smooth muscle in organ chambers, female rabbits; set-up: species or system rabbit; conditions: after phenylephrine precontraction; for relaxation of the corpus cavernosum in the presence of aspirin: purine 10^-3M in the presence of aspirin; for relaxation of the corpus cavernosum: purine alone at 10^-3M
structure (smiles),measurement,setting,value
"CC(=O)Oc1ccccc1C(=O)O [aspirin, acetylsalicylic acid, reference compound]",vasoactivity of the NSAID by itself on this model,[1]; aspirin alone,not vasoactive
COc1ccc2c(c1)c(CC(=O)O)c(C)n2C(=O)c1ccc(Cl)cc1 [indomethacin],potentiation of the relaxant effect of purine by the NSAID,[2],confirmed
Nc1ncnc2c1ncn2[C@@H]1O[C@H](COP(=O)(O)O)[C@@H](O)[C@H]1O [AMP],relaxation of the corpus cavernosum smooth muscle in the presence of aspirin,[1],92%
same,relaxation of the corpus cavernosum smooth muscle,[1],70%
same,relaxation of the corpus cavernosum in the presence of aspirin,[3],36%
same,relaxation of the corpus cavernosum,[3],20%
"NC(=NCCC[C@H](N)C(=O)O)N[N+](=O)[O-] [L-NNA, N-omega-nitro-L-arginine]",decrease of the relaxant effect of purine in the presence of an inhibitor of NO synthesis,[2]; compared with purine alone,about 15%
Cc1cccc(Nc2ccccc2C(=O)O)c1C [mefenamic acid],potentiation of the relaxant effect of purine by the NSAID,[2],confirmed
O=C(O)c1ccccc1O [salicylic acid],potentiation of the relaxant effect of purine by the NSAID,[2],confirmed
"Nc1ncnc2c1ncn2[C@@H]1O[C@H](COP(=O)(O)OP(=O)(O)OP(=O)(O)O)[C@@H](O)[C@H]1O [ATP, adenosine triphosphate]",relaxation of the corpus cavernosum smooth muscle in the presence of aspirin,[1],57%
same,relaxation of the corpus cavernosum smooth muscle,[1],35%
same,relaxation of the corpus cavernosum in the presence of aspirin,[3],50%
same,relaxation of the corpus cavernosum,[3],31%
